Data reported in US10414811B2, “Protease-resistant lipidated GLP-1 analogs” (MEDIMMUNE LIMITED, priority 2015, dated 2019).
Like-named read-outs stand apart in the source and are kept apart here. Numbered stars: 1 amine (or outer) side, 2 acyl side, 3 side chain; on linkers, the order of the positions; unused ones are H or OH. Square brackets hold non-standard residues; d marks the D form. Side chains are listed from the residue outwards. Peptide text beside a SMILES is read from it. * marks the point of attachment. γGlu = O=C(O)[C@H](CCC(=O)[*:2])N[*:1]; Palmitoyl = CCCCCCCCCCCCCCCC(=O)*; αMeF = C[C@](N)(Cc1ccccc1)C(=O)O; αMeK = C[C@](N)(CCCCN)C(=O)O; Lauroyl = CCCCCCCCCCCC(=O)*; αMeS = C[C@](N)(CO)C(=O)O; AEEA = NCCOCCOCC(=O)O; Aib = CC(C)(N)C(=O)O

What was measured:
[1] = target: T1, human glucagon receptor (GCGR) (Homo sapiens, UniProt P47871); assay: cAMP assay, human GCGR cells; assay type: cell-based
T1 construct: expressed in transfected cells
In short: (§1)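 Peptide-stimulated cAMP measured by two-step HTRF after a 30 min room-temperature incubation with receptor-expressing cells (hGLP-1R, hGIPR at 1×10^5 cells/ml; hGCGR at 2×10^5 cells/ml). Duplicate dilutions; EC50 from 4-parameter logistic fit of % Delta F.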

GLP-1R (INS1e assay) = target: T2, GLP-1R (INS1e assay) (Rattus norvegicus, UniProt P32301); assay: INS1e assay, cAMP activity at GLP-1R; assay type: cell-based
T2 construct: endogenous in cells; host or cells: INS-1E cells
T2 sequence (P32301 22-463): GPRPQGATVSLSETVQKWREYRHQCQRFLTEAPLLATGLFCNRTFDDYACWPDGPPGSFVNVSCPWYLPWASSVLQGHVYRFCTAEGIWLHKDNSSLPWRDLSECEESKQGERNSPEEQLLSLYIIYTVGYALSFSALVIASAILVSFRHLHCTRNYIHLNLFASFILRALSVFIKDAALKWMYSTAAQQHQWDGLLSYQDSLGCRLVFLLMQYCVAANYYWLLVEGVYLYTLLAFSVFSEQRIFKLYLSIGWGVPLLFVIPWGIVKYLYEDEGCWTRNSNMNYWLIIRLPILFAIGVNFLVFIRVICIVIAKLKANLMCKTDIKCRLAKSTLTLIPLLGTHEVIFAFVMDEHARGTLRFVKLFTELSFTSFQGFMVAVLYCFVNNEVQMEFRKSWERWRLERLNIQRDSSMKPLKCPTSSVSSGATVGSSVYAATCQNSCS
In short: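 It pairs cAMP-d2 acceptor with anti-cAMP cryptate donor, both prepared 1/20 in conjugate/lysis buffer, applied as a two-step protocol.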

[2] = target: T3, human glucose-dependent insulinotropic peptide receptor (GIPR) (Homo sapiens, UniProt P48546); assay: cAMP assay, human GIPR cells; assay type: cell-based
T3 construct: expressed in transfected cells
T3 sequence (P48546 22-466): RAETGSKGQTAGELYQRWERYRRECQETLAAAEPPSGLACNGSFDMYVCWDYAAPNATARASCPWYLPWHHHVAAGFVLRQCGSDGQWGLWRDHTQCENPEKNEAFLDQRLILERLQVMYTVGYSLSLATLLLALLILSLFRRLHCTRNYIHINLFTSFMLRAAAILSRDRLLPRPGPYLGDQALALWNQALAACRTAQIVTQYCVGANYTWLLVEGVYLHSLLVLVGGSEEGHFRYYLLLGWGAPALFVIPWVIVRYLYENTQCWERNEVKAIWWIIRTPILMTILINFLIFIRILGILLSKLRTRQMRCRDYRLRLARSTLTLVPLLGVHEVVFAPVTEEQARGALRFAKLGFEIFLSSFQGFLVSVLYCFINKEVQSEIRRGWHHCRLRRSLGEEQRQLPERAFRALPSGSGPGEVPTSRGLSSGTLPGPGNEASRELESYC
In short: as §1

Neprilysin = target: T4, Neprilysin (Homo sapiens, UniProt P08473); assay: Proteolytic resistance to neprilysin (% remaining peptide, RP-HPLC AUC); assay type: in vitro ADME; settings: t = 0; 37° C., pH 8.3
T4 construct: purchased R&D Systems 1182-ZNC-010
Method: Ratio enzyme (units):peptide (μmoles)˜1:33. […] Ratio enzyme (units):peptide (μmoles)˜1:2.5.
15 μL aliquots (˜15 μg initial peptide) of the peptide-enzyme mixture were periodically withdrawn (t=0, 30 mins, 1 hr, 2 hr, 4 hr, 8 hr, 24 hr) and quenched immediately by addition to an equal volume (15 μL) of 5% TFA (v/v) in 1:1 water/acetonitrile to arrest proteolytic activity. 20 μL aliquots (˜10 μg initial peptide) were analyzed by LC/MS and/or analytical RP-HPLC as follows: LC/MS method: Agilent Polaris C8-A column (4.6×100 mm, 3 micron) eluted with a linear binary gradient of 10-90% MeCN (0.1% TFA v/v) in water (0.1% TFA v/v) over 30 mins at 1.5 mL min-1 at ambient temperature with detection by both UV absorption at 210 nm and ionization using a Waters 3100 mass detector (ESI+ mode). Peptide fragments deriving from enzymatic hydrolysis were identified by molecular weight, allowing location of the site of cleavage. Analytical RP-HPLC method: Agilent Polaris C8-A column (4.6×100 mm, 3 micron) eluted with a linear binary gradient of 10-90% MeCN (0.1% TFA v/v) in water (0.1% TFA v/v) over either 10 or 15 mins at 1.5 mL min^−1 at 40° C. with detection by UV absorption at 210 nm. Manual integration (AUC) allowed estimation of remaining intact peptide over the time course of the experiment.
25 μL aliquots (˜6 μg initial peptide) were analyzed by LC/MS and/or analytical RP-HPLC as follows: LC/MS method: Agilent Polaris C8-A column (4.6×100 mm, 3 micron) eluted with a linear binary gradient of 10-90% MeCN (0.1% TFA v/v) in water (0.1% TFA v/v) over 30 mins at 1.5 mL min^−1 at ambient temperature with detection by both UV absorption at 210 nm and ionization using a Waters 3100 mass detector (ESP mode). Peptide fragments deriving from enzymatic hydrolysis were identified by molecular weight, allowing location of the site of cleavage. Analytical RP-HPLC method: Agilent Polaris C8-A column (4.6×100 mm, 3 micron) eluted with a linear binary gradient of 10-90% MeCN (0.1% TFA v/v) in water (0.1% TFA v/v) over either 10 or 15 mins at 1.5 mL min^−1 at 40° C. with detection by UV absorption at 210 nm. Manual integration (AUC) allowed estimation of remaining intact peptide over the time course of the experiment.

[3] = target: T5, human GLP-1 receptor (GLP-1R) (Homo sapiens, UniProt P43220); assay: cAMP assay, human GLP-1R cells; assay type: cell-based; settings: tris-lipidated peptides
T5 construct: expressed in transfected cells
In short: as §1

[4] = tris-lipidated peptides, mean of n1 and n2, read-out: INS1e assay EC50 Mean pM GLP-1R
[5] = tris-lipidated peptides, replicate n1, read-out: INS1e assay EC50 GLP-1R n1
[6] = tris-lipidated peptides, replicate n2, read-out: INS1e assay EC50 GLP-1R n2
[7] = mean of n1 and n2, read-out: Primary assay EC50 Mean pM GLP-1R
[8] = replicate n1, read-out: Primary assay EC50 GLP-1R n1
[9] = replicate n2, read-out: Primary assay EC50 GLP-1R n2

T1 sequence (P47871 26-477): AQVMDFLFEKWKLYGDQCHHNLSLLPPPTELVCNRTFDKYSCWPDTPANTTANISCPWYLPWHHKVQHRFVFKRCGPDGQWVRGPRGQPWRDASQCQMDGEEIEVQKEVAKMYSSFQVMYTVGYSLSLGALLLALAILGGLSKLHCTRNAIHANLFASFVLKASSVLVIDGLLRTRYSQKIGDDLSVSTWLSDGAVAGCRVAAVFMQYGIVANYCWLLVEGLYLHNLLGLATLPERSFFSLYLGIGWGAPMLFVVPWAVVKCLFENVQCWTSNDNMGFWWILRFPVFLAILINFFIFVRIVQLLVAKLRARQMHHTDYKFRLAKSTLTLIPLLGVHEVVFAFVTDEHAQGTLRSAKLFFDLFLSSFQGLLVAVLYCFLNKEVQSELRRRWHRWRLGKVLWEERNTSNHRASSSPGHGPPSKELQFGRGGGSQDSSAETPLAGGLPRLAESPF
T5 sequence (P43220 24-463): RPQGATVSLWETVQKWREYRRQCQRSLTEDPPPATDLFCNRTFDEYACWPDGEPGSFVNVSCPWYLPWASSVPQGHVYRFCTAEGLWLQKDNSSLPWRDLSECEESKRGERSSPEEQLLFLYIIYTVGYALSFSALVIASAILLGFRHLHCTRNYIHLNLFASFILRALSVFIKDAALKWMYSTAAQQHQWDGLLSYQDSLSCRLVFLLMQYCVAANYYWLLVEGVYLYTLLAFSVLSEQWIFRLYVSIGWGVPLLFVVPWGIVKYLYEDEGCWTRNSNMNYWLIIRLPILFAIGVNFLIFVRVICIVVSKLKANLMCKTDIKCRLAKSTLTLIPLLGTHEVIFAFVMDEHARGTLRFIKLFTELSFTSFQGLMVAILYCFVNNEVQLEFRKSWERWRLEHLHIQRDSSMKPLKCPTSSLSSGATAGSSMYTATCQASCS
T4 sequence (P08473 whole entry): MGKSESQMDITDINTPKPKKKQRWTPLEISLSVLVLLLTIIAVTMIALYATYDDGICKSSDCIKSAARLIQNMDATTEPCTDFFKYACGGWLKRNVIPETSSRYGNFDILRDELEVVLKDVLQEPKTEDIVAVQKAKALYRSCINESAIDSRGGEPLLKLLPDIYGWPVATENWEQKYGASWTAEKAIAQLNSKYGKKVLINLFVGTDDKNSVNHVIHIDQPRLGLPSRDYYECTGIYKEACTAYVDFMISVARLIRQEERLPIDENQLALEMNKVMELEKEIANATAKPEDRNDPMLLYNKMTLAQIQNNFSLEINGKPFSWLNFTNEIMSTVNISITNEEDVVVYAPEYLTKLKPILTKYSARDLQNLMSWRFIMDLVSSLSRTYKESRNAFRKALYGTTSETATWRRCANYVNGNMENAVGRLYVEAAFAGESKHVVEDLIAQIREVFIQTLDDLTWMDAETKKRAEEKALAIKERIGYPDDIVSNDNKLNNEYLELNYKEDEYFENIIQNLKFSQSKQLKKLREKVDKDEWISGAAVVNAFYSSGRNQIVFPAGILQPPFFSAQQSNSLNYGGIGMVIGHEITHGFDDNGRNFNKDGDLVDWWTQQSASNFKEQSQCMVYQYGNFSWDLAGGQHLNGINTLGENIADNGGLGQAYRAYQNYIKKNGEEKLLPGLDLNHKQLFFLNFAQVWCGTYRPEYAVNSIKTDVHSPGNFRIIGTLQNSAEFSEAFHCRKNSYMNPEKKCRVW

SMILES	Percentage remaining peptide (AUC at specified time-point by RP-HPLC) upon incubation with neprilysin, t = 0 (Neprilysin)	EC50 (GLP-1R (INS1e assay); [4])	EC50 (GLP-1R (INS1e assay); [5])	EC50 (GLP-1R (INS1e assay); [6])	EC50 [3, 7]	EC50 [3, 8]	EC50 [3, 9]	further results
CC[C@H](C)[C@H](NC(=O)[C@](C)(Cc1ccccc1)NC(=O)[C@H](CCC(=O)O)NC(=O)[C@](C)(CCCCN)NC(=O)[C@H](C)NC(=O)[C@H](C)NC(=O)[C@H](CCC(=O)O)NC(=O)CNC(=O)[C@H](CCC(=O)O)NC(=O)[C@H](CC(C)C)NC(=O)[C@](C)(Cc1ccccc1)NC(=O)[C@H](CO)NC(=O)[C@](C)(CO)NC(=O)[C@@H](NC(=O)[C@H](CC(=O)O)NC(=O)[C@H](CO)NC(=O)[C@@H](NC(=O)[C@](C)(Cc1ccccc1)NC(=O)[C@H](CO)NC(=O)CNC(=O)[C@H](CCC(=O)O)NC(=O)C(C)(C)NC(=O)[C@@H](N)Cc1c[nH]cn1)[C@@H](C)O)C(C)C)C(=O)N[C@@H](C)C(=O)N[C@@](C)(Cc1ccccc1)C(=O)N[C@H](C(=O)N[C@H](C(=O)N[C@@](C)(CCCCN)C(=O)NCC(=O)NCC(N)=O)C(C)C)C(C)C [compound 17]	100%							EC50 ([1]; cAMP assay, first determination (n1), read-out: Primary assay EC50 Gluc-R (n1)): ≥ 31 nM; EC50 ([1]; cAMP assay, second determination (n2), read-out: Primary assay EC50 Gluc-R (n2)): ≥ 31 nM; EC50 (GLP-1R (INS1e assay); mono-lipidated peptides, mean of n1 and n2, read-out: INS1e assay EC50 Mean pM GLP-1R): 6 pM; EC50 (GLP-1R (INS1e assay); mono-lipidated peptides, replicate n1, read-out: INS1e assay EC50 GLP-1R n1): 5.1 pM; EC50 (GLP-1R (INS1e assay); mono-lipidated peptides, replicate n2, read-out: INS1e assay EC50 GLP-1R n2): 7.87 pM; EC50 ([2]; cAMP assay, first determination (n1), read-out: Primary assay EC50 GIP-R (n1)): ≥ 31 nM; EC50 ([2]; cAMP assay, second determination (n2), read-out: Primary assay EC50 GIP-R (n2)): ≥ 31 nM
CCCCCCCCCCCC(=O)N[C@@H](CCC(=O)NCCOCCOCC(=O)NCCOCCOCC(=O)NCCCC[C@H](NC(=O)[C@H](C)NC(=O)[C@@H](NC(=O)[C@H](Cc1ccccc1)NC(=O)[C@H](CCC(=O)O)NC(=O)[C@](C)(CCCCN)NC(=O)[C@H](C)NC(=O)[C@H](CCCCNC(=O)COCCOCCNC(=O)COCCOCCNC(=O)CC[C@H](NC(=O)CCCCCCCCCCC)C(=O)O)NC(=O)[C@H](CCC(=O)O)NC(=O)CNC(=O)[C@H](CCC(=O)O)NC(=O)[C@H](CCCCNC(=O)COCCOCCNC(=O)COCCOCCNC(=O)CC[C@H](NC(=O)CCCCCCCCCCC)C(=O)O)NC(=O)[C@H](Cc1ccc(O)cc1)NC(=O)[C@H](CO)NC(=O)[C@](C)(CO)NC(=O)[C@@H](NC(=O)[C@H](CC(=O)O)NC(=O)[C@H](CO)NC(=O)[C@@H](NC(=O)[C@](C)(Cc1ccccc1)NC(=O)[C@H](CO)NC(=O)CNC(=O)[C@H](CCC(=O)O)NC(=O)C(C)(C)NC(=O)[C@@H](N)Cc1c[nH]cn1)[C@@H](C)O)C(C)C)[C@@H](C)CC)C(=O)N[C@H](C(=O)N[C@H](C(=O)N[C@@H](CCC(=O)O)C(=O)NCC(=O)NCC(N)=O)C(C)C)C(C)C)C(=O)O [compound 469] (H-H[Aib]EGS[αMeF]TSDV[αMeS]SYK([AEEA-AEEA-γGlu-Lauroyl])EGEK([AEEA-AEEA-γGlu-Lauroyl])A[αMeK]EFIAK([AEEA-AEEA-γGlu-Lauroyl])VVEGG-NH2; N-terminus assumed)		4900 pM	6900 pM	2890 pM	45.4 pM	41.8 pM	49 pM	EC50 ([1]; tris-lipidated peptides, second replicate, read-out: Primary assay EC50 Gluc-R (n2)): 19.8 nM; EC50 ([2]; tris-lipidated peptides, second replicate, read-out: Primary assay EC50 GIP-R (n2)): 19.8 nM
CCCCCCCCCCCC(=O)N[C@@H](CCC(=O)NCCOCCOCC(=O)NCCOCCOCC(=O)NCCCC[C@H](NC(=O)[C@H](CO)NC(=O)[C@](C)(CO)NC(=O)[C@@H](NC(=O)[C@H](CC(=O)O)NC(=O)[C@H](CO)NC(=O)[C@@H](NC(=O)[C@](C)(Cc1ccccc1)NC(=O)[C@H](CO)NC(=O)CNC(=O)[C@H](CCC(=O)O)NC(=O)C(C)(C)NC(=O)[C@@H](N)Cc1c[nH]cn1)[C@@H](C)O)C(C)C)C(=O)N[C@@H](CC(C)C)C(=O)N[C@@H](CCC(=O)O)C(=O)NCC(=O)N[C@@H](CCC(=O)O)C(=O)N[C@@H](C)C(=O)N[C@@H](C)C(=O)N[C@@](C)(CCCCN)C(=O)N[C@@H](CCCCNC(=O)COCCOCCNC(=O)COCCOCCNC(=O)CC[C@H](NC(=O)CCCCCCCCCCC)C(=O)O)C(=O)N[C@@H](Cc1ccccc1)C(=O)N[C@H](C(=O)N[C@@H](C)C(=O)N[C@@H](Cc1ccccc1)C(=O)N[C@@H](CCCCNC(=O)COCCOCCNC(=O)COCCOCCNC(=O)CC[C@H](NC(=O)CCCCCCCCCCC)C(=O)O)C(=O)N[C@H](C(=O)N[C@@H](CCC(=O)O)C(=O)NCC(=O)NCC(N)=O)C(C)C)[C@@H](C)CC)C(=O)O [compound 482] (H-H[Aib]EGS[αMeF]TSDV[αMeS]SK([AEEA-AEEA-γGlu-Lauroyl])LEGEAA[αMeK]K([AEEA-AEEA-γGlu-Lauroyl])FIAFK([AEEA-AEEA-γGlu-Lauroyl])VEGG-NH2)		5860 pM	8570 pM	3150 pM	36.3 pM	28.3 pM	44.2 pM	EC50 ([1]; tris-lipidated peptides, first replicate, read-out: Primary assay EC50 Gluc-R (n1)): 20 nM; EC50 ([2]; tris-lipidated peptides, first replicate, read-out: Primary assay EC50 GIP-R (n1)): 20 nM
CCCCCCCCCCCCCCCC(=O)NCCCC[C@H](NC(=O)CNC(=O)CNC(=O)[C@](C)(CCCCN)NC(=O)[C@@H](NC(=O)[C@@H](NC(=O)[C@](C)(Cc1ccccc1)NC(=O)[C@H](C)NC(=O)[C@@H](NC(=O)[C@](C)(Cc1ccccc1)NC(=O)[C@H](CCC(=O)O)NC(=O)[C@](C)(CCCCN)NC(=O)[C@H](C)NC(=O)[C@H](C)NC(=O)[C@H](CCC(N)=O)NC(=O)CNC(=O)[C@H](CCC(=O)O)NC(=O)[C@H](CC(C)C)NC(=O)[C@](C)(Cc1ccccc1)NC(=O)[C@H](CO)NC(=O)[C@H](CO)NC(=O)[C@@H](NC(=O)[C@H](CC(=O)O)NC(=O)[C@H](CO)NC(=O)[C@@H](NC(=O)[C@](C)(Cc1ccccc1)NC(=O)[C@H](CO)NC(=O)CNC(=O)[C@H](CCC(=O)O)NC(=O)C(C)(C)NC(=O)[C@@H](N)Cc1c[nH]cn1)[C@@H](C)O)C(C)C)[C@@H](C)CC)C(C)C)C(C)C)C(N)=O [compound 489] (H-H[Aib]EGS[αMeF]TSDVSS[αMeF]LEGQAA[αMeK]E[αMeF]IA[αMeF]VV[αMeK]GGK(Palmitoyl)-NH2)	100%							
